Test results as given in patent US8686150B2 (Sanofi, priority 2011, dated 2014).

Target: T1, human full-length recombinant PKC βII (Homo sapiens, UniProt P05771)
T1 construct: Active human full-length recombinant PKC βII; purchased Invitrogen GmbH, Darmstadt, Germany
Experiment: Determination of PKC βII inhibition (Caliper mobility-shift kinase assay, Fluorescein-RFARKGSLRQKNV peptide substrate)
Type: biochemical
Settings: example compounds at a final concentration of 1.14 μM (±0.15 μM)
Method in brief: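 Full-length PKC βII (30 ng/ml in pre-dilution) with PS/DAG/Ca2+ activators, pH 7.4; fluorescein peptide and ATP at 3 μM and 120 μM before mixing. Reaction ran 60 min at 32 °C, was EDTA-stopped, and was read by mobility shift. % inhibition came from product/(substrate+product) peak heights, tested at 1.14 μM final.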

T1 sequence (P05771 1-673 isoform P05771-2): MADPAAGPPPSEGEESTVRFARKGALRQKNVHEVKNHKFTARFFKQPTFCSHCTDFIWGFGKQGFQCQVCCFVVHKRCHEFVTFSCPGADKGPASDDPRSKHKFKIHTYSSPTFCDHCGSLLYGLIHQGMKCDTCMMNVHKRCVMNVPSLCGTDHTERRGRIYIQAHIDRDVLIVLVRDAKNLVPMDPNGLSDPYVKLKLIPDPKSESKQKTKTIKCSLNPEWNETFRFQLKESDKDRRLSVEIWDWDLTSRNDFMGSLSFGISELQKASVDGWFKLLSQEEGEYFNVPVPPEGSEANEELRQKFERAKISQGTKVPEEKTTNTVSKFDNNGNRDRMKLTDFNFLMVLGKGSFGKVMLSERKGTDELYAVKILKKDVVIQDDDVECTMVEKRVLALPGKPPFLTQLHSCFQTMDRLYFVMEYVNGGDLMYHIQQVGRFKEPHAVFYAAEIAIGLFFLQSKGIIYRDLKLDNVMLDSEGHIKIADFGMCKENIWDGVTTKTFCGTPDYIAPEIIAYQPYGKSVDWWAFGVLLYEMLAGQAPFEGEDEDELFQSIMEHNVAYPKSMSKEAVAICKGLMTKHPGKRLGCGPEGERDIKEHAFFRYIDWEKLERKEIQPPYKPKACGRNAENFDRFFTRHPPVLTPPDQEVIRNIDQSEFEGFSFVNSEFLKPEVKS

inhibition at 1.14 µM	Compound
29%	Cc1n[nH]c2nc(-c3ccc(O)cc3)cc(C(=O)N3CCC4(CC3)CNCCO4)c12 [Example 259, [6-(4-Hydroxy-phenyl)-3-methyl-1H-pyrazolo[3,4-b]pyridin-4-yl]-(1-oxa-4,9-diaza-spiro[5.5]undec-9-yl)-methanone]
97%	CC[C@H]1CNCCN1C(=O)c1cc(-c2ccc(O)cc2F)nc2[nH]nc(C)c12 [Example 431, ((S)-2-Ethyl-piperazin-1-yl)-[6-(2-fluoro-4-hydroxy-phenyl)-3-methyl-1H-pyrazolo[3,4-b]pyridin-4-yl]-methanone]
44%	CCc1n[nH]c2nc(-c3ccc(O)cc3)cc(C(=O)NC3CCNC4(CCC4)C3)c12 (stereo not drawn) [Example 168, 3-Ethyl-6-(4-hydroxy-phenyl)-1H-pyrazolo[3,4-b]pyridine-4-carboxylic acid (5-aza-spiro[3.5]non-8-yl)-amide]
82%	Cc1n[nH]c2nc(-c3ccc(O)c(F)c3)cc(C(=O)NC3CNC3)c12 [Example 302, 6-(3-Fluoro-4-hydroxy-phenyl)-3-methyl-1H-pyrazolo[3,4-b]pyridine-4-carboxylic acid azetidin-3-ylamide]
31%	Cc1n[nH]c2nc(-c3ccc(O)c(F)c3)cc(C(=O)NCC(C)(CN3CCCC3)c3ccccn3)c12 (stereo not drawn) [Example 371, 6-(3-Fluoro-4-hydroxy-phenyl)-3-methyl-1H-pyrazolo[3,4-b]pyridine-4-carboxylic acid (2-methyl-2-pyridin-2-yl-3-pyrrolidin-1-yl-propyl)-amide]
51%	Cc1n[nH]c2nc(-c3ccc(O)cc3F)cc(C(=O)N3CCNC(c4ccccc4)C3)c12 (stereo not drawn) [Example 421, [6-(2-Fluoro-4-hydroxy-phenyl)-3-methyl-1H-pyrazolo[3,4-b]pyridin-4-yl]-(3-phenyl-piperazin-1-yl)-methanone]
92%	Cc1cc(O)ccc1-c1cc(C(=O)N2CCN[C@@H](C)C2)c2c(C)n[nH]c2n1 [Example 145, [6-(4-Hydroxy-2-methyl-phenyl)-3-methyl-1H-pyrazolo[3,4-b]pyridin-4-yl]-((S)-3-methyl-piperazin-1-yl)-methanone]
55%	O=C(c1cc(-c2ccc(O)cc2)nc2[nH]nc(C(F)(F)F)c12)N1CC2(CCNCC2)C1 [Example 403, (2,7-Diaza-spiro[3.5]non-2-yl)-[6-(4-hydroxy-phenyl)-3-trifluoromethyl-1H-pyrazolo[3,4-b]pyridin-4-yl]-methanone]
71%	CCc1n[nH]c2nc(-c3ccc(O)cc3)cc(C(=O)N3CCC(NC)C3)c12 (stereo not drawn) [Example 178, [3-Ethyl-6-(4-hydroxy-phenyl)-1H-pyrazolo[3,4-b]pyridin-4-yl]-(3-methylamino-pyrrolidin-1-yl)-methanone]
100%	Cc1cc(O)ccc1-c1cc(C(=O)N2CCNC[C@H]2c2ccccc2)c2c(C)n[nH]c2n1 [Example 150, [6-(4-Hydroxy-2-methyl-phenyl)-3-methyl-1H-pyrazolo[3,4-b]pyridin-4-yl]-((R)-2-phenyl-piperazin-1-yl)-methanone]
95%	Cc1cc(O)ccc1-c1cc(C(=O)N2CCNC[C@@H]2C)c2c(C)n[nH]c2n1 [Example 17, [6-(4-Hydroxy-2-methyl-phenyl)-3-methyl-1H-pyrazolo[3,4-b]pyridin-4-yl]-((S)-2-methyl-piperazin-1-yl)-methanone]
88%	Cc1n[nH]c2nc(-c3ccc(O)c(F)c3)cc(C(=O)N3CCN[C@@H](CC(C)C)C3)c12 [Example 351, [6-(3-Fluoro-4-hydroxy-phenyl)-3-methyl-1H-pyrazolo[3,4-b]pyridin-4-yl]-((S)-3-isobutyl-piperazin-1-yl)-methanone]
21%	CC(=O)N1CCC(NC(=O)c2cc(-c3ccc(O)c(F)c3)nc3[nH]nc(C)c23)CC1 [Example 357, 6-(3-Fluoro-4-hydroxy-phenyl)-3-methyl-1H-pyrazolo[3,4-b]pyridine-4-carboxylic acid (1-acetyl-piperidin-4-yl)-amide]
95%	Cc1n[nH]c2nc(-c3ccc(O)cc3)cc(C(=O)N3CC4CCC3CN4)c12 (stereo not drawn) [Example 71, 2,5-Diaza-bicyclo[2.2.2]oct-2-yl-[6-(4-hydroxy-phenyl)-3-methyl-1H-pyrazolo[3,4-b]pyridin-4-yl]-methanone]
53%	Cc1n[nH]c2nc(-c3ccc(O)cc3)cc(C(=O)NC[C@H]3CC[C@@H](N)CC3)c12 [Example 105, 6-(4-Hydroxy-phenyl)-3-methyl-1H-pyrazolo[3,4-b]pyridine-4-carboxylic acid (cis-4-amino-cyclohexylmethyl)-amide]
70%	COC(=O)CC1CNCCN1C(=O)c1cc(-c2ccc(O)c(F)c2)nc2[nH]nc(C)c12 (stereo not drawn) [Example 353, {1-[6-(3-Fluoro-4-hydroxy-phenyl)-3-methyl-1H-pyrazolo[3,4-b]pyridine-4-carbonyl]-piperazin-2-yl}-acetic acid methyl ester]
98%	Cc1cc(O)ccc1-c1cc(C(=O)N2CCNCC2(C)C)c2c(C)n[nH]c2n1 [Example 142, (2,2-Dimethyl-piperazin-1-yl)-[6-(4-hydroxy-2-methyl-phenyl)-3-methyl-1H-pyrazolo[3,4-b]pyridin-4-yl]-methanone]
78%	Cc1n[nH]c2nc(-c3ccc(O)cc3)cc(C(=O)N3CCC4(CCNCC4)C3)c12 [Example 260, (2,8-Diaza-spiro[4.5]dec-2-yl)-[6-(4-hydroxy-phenyl)-3-methyl-1H-pyrazolo[3,4-b]pyridin-4-yl]-methanone]
92%	Cc1n[nH]c2nc(-c3ccc(O)cc3)cc(C(=O)N3C[C@@H](C)NC[C@@H]3C)c12 [Example 112, ((2S,5R)-2,5-Dimethyl-piperazin-1-yl)-[6-(4-hydroxy-phenyl)-3-methyl-1H-pyrazolo[3,4-b]pyridin-4-yl]-methanone]
59%	Cc1n[nH]c2nc(-c3ccc(O)c(F)c3)cc(C(=O)N[C@H]3C[C@@H]3N)c12 (racemic) [Example 307, 6-(3-Fluoro-4-hydroxy-phenyl)-3-methyl-1H-pyrazolo[3,4-b]pyridine-4-carboxylic acid (trans-2-amino-cyclopropyl)-amide]
73%	Cc1n[nH]c2nc(-c3ccc(O)cc3)cc(C(=O)N3CCC4(CNCCO4)C3)c12 (stereo not drawn) [Example 253, [6-(4-Hydroxy-phenyl)-3-methyl-1H-pyrazolo[3,4-b]pyridin-4-yl]-(6-oxa-2,9-diaza-spiro[4.5]dec-2-yl)-methanone]
99%	Cc1n[nH]c2nc(-c3ccc(O)cc3)cc(C(=O)N3CCNC[C@H]3c3ccccc3)c12 [Example 28, [6-(4-Hydroxy-phenyl)-3-methyl-1H-pyrazolo[3,4-b]pyridin-4-yl]-((R)-2-phenyl-piperazin-1-yl)-methanone]
98%	Cc1n[nH]c2nc(-c3ccc(O)cc3F)cc(C(=O)N3CCNCC34CC4)c12 [Example 64, (4,7-Diaza-spiro[2.5]oct-4-yl)-[6-(2-fluoro-4-hydroxy-phenyl)-3-methyl-1H-pyrazolo[3,4-b]pyridin-4-yl]-methanone]
83%	CCN1CCCC(NC(=O)c2cc(-c3ccc(O)cc3)nc3[nH]nc(C)c23)C1 (stereo not drawn) [Example 273, 6-(4-Hydroxy-phenyl)-3-methyl-1H-pyrazolo[3,4-b]pyridine-4-carboxylic acid (1-ethyl-piperidin-3-yl)-amide]
